Seven compounds from PMC10786919, “Design-rules for stapled peptides with in vivo activity and their application to Mdm2/X antagonists” (Nature Communications, 2024) can be followed below.

Converted amounts (≈) assume the structure as drawn. Like-named read-outs stand apart in the source and are kept apart here. Positions of bridges follow the written chain, without caps; N, C: chain ends. Non-standard residues stand in square brackets, D forms with d. Residues, ends and D or L forms follow the SMILES beside them. Lys(N3) = [N-]=[N+]=NCCCC[C@H](N)C(=O)O; R8 = C=CCCCCCC[C@@](C)(N)C(=O)O; Cba = N[C@@H](CC1CCC1)C(=O)O; S5 = C=CCCC[C@](C)(N)C(=O)O; βAla = NCCC(=O)O

The nature of series [1]: Lactate dehydrogenase (LDH) release assay. The format is cell-based. In a few lines: (§1)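 A p53 β-lactamase reporter HCT116 line, 8000 cells per well, is exposed to test compounds at 0.5% final DMSO and scored for LDH leakage.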
Series [2] has as its system HCT116 cells. The series is described as follows: Lactate dehydrogenase (LDH) release assay. The format is cell-based. In a few lines: as §1
A short description of series [3]: Solubility assay (kinetic solubility, PBS pH 7). In kind it is physicochemical. Particulars: for solubility kinetic: pH 7, aqueous buffer, kinetic from dmso stock, read-out: Solubility. The essentials: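 Next, measure peak areas of sample and standard. Finally, multiply their ratio by the standard concentration to obtain solubility (µM).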
Series [4] can be described thus: Nanoclick permeability assay. In a few lines:
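Azido-peptide permeability was read as loss of NanoBRET signal (donor 450 nm, acceptor 610 nm) after adding NanoBret618-azide at 10 μM final.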

Series [5] can be described thus: physchem.
The nature of series [6]: Experimental LogD (partition coefficient). The settings on record: for logD: not stated, Partition Coeff LogD.
[7] abbreviates: 0% FBS 4Hr, read-out: LDH: Cytotoxicity assay EC50.
Where [8] appears, read: 10% FBS 4Hr, read-out: LDH: Cytotoxicity assay EC50.

In the case of `CC(=O)N[C@@H](CCCCN=[N+]=[N-])C(=O)NCCC(=O)N[C@@H](CC(C)C)C(=O)N[C@H](C(=O)N[C@@H](Cc1ccccc1)C(=O)N[C@]1(C)CCCCCCC=CCCC[C@@](C)(C(=O)N[C@@H](CO)C(=O)N[C@@H](C)C(=O)N[C@@H](C)C(N)=O)NC(=O)[C@H](CC2CCC2)NC(=O)[C@H](CCCCN)NC(=O)[C@H](C)NC(=O)[C@H](Cc2c[nH]c3ccccc23)NC(=O)[C@H](Cc2ccc(O)cc2)NC(=O)[C@H](CCC(=O)O)NC1=O)[C@@H](C)O` [MP-550, AZIDE-ATSP-7041 (Q9K)], the EC50 (commonly the midpoint of the concentration-response curve) in series [1] (setting [7]) was greater than 50000 nM. Moreover, the figures for the “LDH: Cytotoxicity assay % Effect” value in series [2] (0% FBS 4Hr) and in series [2] (0% FBS 16Hr) were 7.145% and 4.1%, respectively. Also, the solubility kinetic in series [3] (pH 7, PBS) was 4 µM (≈ 7.88 µg/mL). Also, the cell entry EC50 in series [4] turned out to be 437 nM. Also, in series [5], the EPSA is 217 A^2. Also, the pH-dependent lipophilicity (logD) (as a rule, the decadic logarithm of the distribution of all forms, ionised or not, between an organic phase and buffer at a given pH) in series [6] worked out at 3.08.
For `CC(=O)N[C@@H](CCCCN=[N+]=[N-])C(=O)NCCC(=O)N[C@@H](CC(C)C)C(=O)N[C@H](C(=O)N[C@@H](Cc1ccccc1)C(=O)N[C@]1(C)CCCCCCC=CCCC[C@@](C)(C(=O)N[C@@H](CCCCN)C(=O)N[C@@H](C)C(=O)N[C@@H](C)C(N)=O)NC(=O)[C@H](CC2CCC2)NC(=O)[C@H](CCC(N)=O)NC(=O)[C@H](C)NC(=O)[C@H](Cc2c[nH]c3ccccc23)NC(=O)[C@H](Cc2ccc(O)cc2)NC(=O)[C@H](CCC(=O)O)NC1=O)[C@@H](C)O` [MP-551, AZIDE-ATSP-7041 (S12K)] (Ac-[Lys(N3)][βAla]LTF[R8]EYWAQ[Cba][S5]KAA-NH2; staple 6-13), the EC50 in series [1] (setting [7]) is greater than 50000 nM. For the same compound, the “LDH: Cytotoxicity assay % Effect” value in series [2] (0% FBS 4Hr) is reported as 3.03%; in series [2] (0% FBS 16Hr), -1.59%. Moreover, the solubility kinetic in series [3] (pH 7, PBS) came to 2 µM (≈ 4.02 µg/mL). In addition, the cell entry EC50 in series [4] is 253 nM. Besides, the EPSA in series [5] is 216 A^2. The logD in series [6] was found to be 2.83.
For the compound `CC(=O)N[C@@H](CCCCN=[N+]=[N-])C(=O)NCCC(=O)N[C@@H](C)C(=O)N[C@H](C(=O)N[C@@H](Cc1ccccc1)C(=O)N[C@]1(C)CCCCCCC=CCCC[C@@](C)(C(=O)N[C@@H](CO)C(=O)N[C@@H](C)C(=O)N[C@@H](C)C(N)=O)NC(=O)[C@H](CC2CCC2)NC(=O)[C@H](CCC(N)=O)NC(=O)[C@H](C)NC(=O)[C@H](Cc2c[nH]c3ccccc23)NC(=O)[C@H](Cc2ccc(O)cc2)NC(=O)[C@H](CCC(=O)O)NC1=O)[C@@H](C)O` [MP-952, AZIDE-ATSP-7041 (L1A)], in series [1] (setting [7]), the concentration for a half-maximal effect (EC50) is greater than 50000 nM. Moreover, the “LDH: Cytotoxicity assay % Effect” value stood at 11.9% in series [2] (0% FBS 4Hr) and 8.95% in series [2] (0% FBS 16Hr). Moreover, in series [3] (pH 7, PBS), the solubility kinetic came out at 109 µM (≈ 210 µg/mL). The cell entry EC50 in series [4] was determined as 192 nM. The compound also displayed an EPSA in series [5] of 223 A^2. This compound came in with a logD in series [6] of 2.73.
For the compound `CC(=O)N[C@@H](CCCCN=[N+]=[N-])C(=O)NCCC(=O)N[C@@H](CC(C)C)C(=O)N[C@@H](C)C(=O)N[C@@H](Cc1ccccc1)C(=O)N[C@]1(C)CCCCCCC=CCCC[C@@](C)(C(=O)N[C@@H](CO)C(=O)N[C@@H](C)C(=O)N[C@@H](C)C(N)=O)NC(=O)[C@H](CC2CCC2)NC(=O)[C@H](CCC(N)=O)NC(=O)[C@H](C)NC(=O)[C@H](Cc2c[nH]c3ccccc23)NC(=O)[C@H](Cc2ccc(O)cc2)NC(=O)[C@H](CCC(=O)O)NC1=O` [MP-953, AZIDE-ATSP-7041 (T2A)] (Ac-[Lys(N3)][βAla]LAF[R8]EYWAQ[Cba][S5]SAA-NH2; staple 6-13), in series [1] (setting [7]), the EC50 was greater than 50000 nM. Also, the results for the “LDH: Cytotoxicity assay % Effect” value in series [2] (0% FBS 4Hr) and in series [2] (0% FBS 16Hr) were 11.05% and -0.16%, respectively. Moreover, the solubility kinetic in series [3] (pH 7, PBS) was 186 µM (≈ 361 µg/mL). Further, in series [4], the cell entry EC50 is 494 nM. The EPSA in series [5] was 221 A^2. The compound further returned a log distribution coefficient (logD) in series [6] of 2.93.
For `CC(=O)N[C@@H](CCCCN=[N+]=[N-])C(=O)NCCC(=O)N[C@@H](CC(C)C)C(=O)N[C@H](C(=O)N[C@@H](Cc1ccccc1)C(=O)N[C@]1(C)CCCCCCC=CCCC[C@@](C)(C(=O)N[C@@H](CO)C(=O)N[C@@H](C)C(=O)N[C@@H](C)C(N)=O)NC(=O)[C@H](CC2CCC2)NC(=O)[C@H](CCC(N)=O)NC(=O)[C@H](C)NC(=O)[C@H](Cc2c[nH]c3ccccc23)NC(=O)[C@H](Cc2ccc(O)cc2)NC(=O)[C@H](C)NC1=O)[C@@H](C)O` [MP-954, AZIDE-ATSP-7041 (E5A)] (Ac-[Lys(N3)][βAla]LTF[R8]AYWAQ[Cba][S5]SAA-NH2; staple 6-13), the concentration giving a half-maximal response (EC50) in series [1] (setting [7]) and in series [1] (setting [8]) was greater than 50000 nM throughout. Further, the “LDH: Cytotoxicity assay % Effect” value is on record as 9.323% in series [2] (0% FBS 4Hr), -0.76% in series [2] (0% FBS 16Hr) and 15.23% in series [2] (10% FBS 4Hr). Also, the Solubility result in series [3] is “P.B”; in series [3] (pH 7, PBS), “Poorly Behaved”. Also, in series [4], the cell entry EC50 was 217 nM. The compound further gave an EPSA in series [5] of 205 A^2. Besides, the “Partition Coeff LogD” value in series [6] was “Poorly Behaved”; in series [6] (experimental) it was “P.B”.
As for `CC(=O)N[C@@H](CCCCN=[N+]=[N-])C(=O)NCCC(=O)N[C@@H](CC(C)C)C(=O)N[C@H](C(=O)N[C@@H](Cc1ccccc1)C(=O)N[C@]1(C)CCCCCCC=CCCC[C@@](C)(C(=O)N[C@@H](CO)C(=O)N[C@@H](C)C(=O)N[C@@H](C)C(N)=O)NC(=O)[C@H](CC2CCC2)NC(=O)[C@H](C)NC(=O)[C@H](C)NC(=O)[C@H](Cc2c[nH]c3ccccc23)NC(=O)[C@H](Cc2ccc(O)cc2)NC(=O)[C@H](CCC(=O)O)NC1=O)[C@@H](C)O` [MP-955, AZIDE-ATSP-7041 (Q9A)] (Ac-[Lys(N3)][βAla]LTF[R8]EYWAA[Cba][S5]SAA-NH2; staple 6-13), the EC50 in series [1] (setting [7]) and in series [1] (setting [8]) was greater than 50000 nM each time. Moreover, the figures for the “LDH: Cytotoxicity assay % Effect” value in series [2] (0% FBS 4Hr) and in series [2] (10% FBS 4Hr) were 21.34% and -4.376%, respectively. Further, in series [3] (pH 7, PBS), the solubility kinetic is 86.5 µM (≈ 165 µg/mL). For the same compound, in series [4], the cell entry EC50 was determined as 582 nM. This compound had an EPSA in series [5] of 215 A^2. Further, in series [6], the pH-dependent lipophilicity (logD) came out at 2.94.
With `CC(=O)N[C@@H](CCCCN=[N+]=[N-])C(=O)NCCC(=O)N[C@@H](C)C(=O)N[C@@H](C)C(=O)N[C@@H](Cc1ccccc1)C(=O)N[C@]1(C)CCCCCCC=CCCC[C@@](C)(C(=O)N[C@@H](CO)C(=O)N[C@@H](C)C(=O)N[C@@H](C)C(N)=O)NC(=O)[C@H](CC2CCC2)NC(=O)[C@H](CCC(N)=O)NC(=O)[C@H](C)NC(=O)[C@H](Cc2c[nH]c3ccccc23)NC(=O)[C@H](Cc2ccc(O)cc2)NC(=O)[C@H](CCC(=O)O)NC1=O` [MP-957, AZIDE-ATSP-7041 (L1A,T2A)] (Ac-[Lys(N3)][βAla]AAF[R8]EYWAQ[Cba][S5]SAA-NH2; staple 6-13), the concentration giving a half-maximal response (EC50) in series [1] (setting [7]) is 17100 nM; in series [1] (4 hours, 0% serum, read-out: LDH Cytotoxicity assay EC50) it was 17100 nM. In series [2] (0% FBS 4Hr), the “LDH: Cytotoxicity assay % Effect” value is recorded as 25.16%. Moreover, the solubility kinetic in series [3] (pH 7, PBS) stood at 101 µM (≈ 192 µg/mL). In series [4], the cell entry EC50 is 125 nM. The same compound gave an EPSA in series [5] of 226 A^2. This compound gave a logD in series [6] of 2.69.
